Values of other authors in US12296127B2, “Intravesical drug delivery devices” (Massachusetts Institute of Technology, priority 2007, dated 2025).

Key:
[1] = delivered orally or transdermally
[2] = oral delivery (ELMIRON); high first pass effect

Molecule | patients taking the drug who experience side effects [1] | patients who stop treatment due to the severity of the side effects [1] [%] | bioavailability [2] [%]
CCN(CC)CC#CCOC(=O)C(O)(c1ccccc1)C1CCCCC1 (stereo not drawn) [oxybutynin] | approximately 61% | 7 to 11 | 
Pentosan polysulfate sodium [PPS] |  |  | 3
